Like-named read-outs stand apart in the source and are kept apart here.
Key:
[1] = biological target: T1, human Kv4.3/KChIP2.2 potassium channel (Homo sapiens, UniProt Q9UK17); assay: Whole cell patch clamp, CHO-K1 cells stably expressing Kv4.3/KChIP2.2; type: cell-based; conditions: for remaining activity at 1 µM: CHO-K1
T1 construct: expressed in transfected cells
T1 sequence (Q9UK17 1-655): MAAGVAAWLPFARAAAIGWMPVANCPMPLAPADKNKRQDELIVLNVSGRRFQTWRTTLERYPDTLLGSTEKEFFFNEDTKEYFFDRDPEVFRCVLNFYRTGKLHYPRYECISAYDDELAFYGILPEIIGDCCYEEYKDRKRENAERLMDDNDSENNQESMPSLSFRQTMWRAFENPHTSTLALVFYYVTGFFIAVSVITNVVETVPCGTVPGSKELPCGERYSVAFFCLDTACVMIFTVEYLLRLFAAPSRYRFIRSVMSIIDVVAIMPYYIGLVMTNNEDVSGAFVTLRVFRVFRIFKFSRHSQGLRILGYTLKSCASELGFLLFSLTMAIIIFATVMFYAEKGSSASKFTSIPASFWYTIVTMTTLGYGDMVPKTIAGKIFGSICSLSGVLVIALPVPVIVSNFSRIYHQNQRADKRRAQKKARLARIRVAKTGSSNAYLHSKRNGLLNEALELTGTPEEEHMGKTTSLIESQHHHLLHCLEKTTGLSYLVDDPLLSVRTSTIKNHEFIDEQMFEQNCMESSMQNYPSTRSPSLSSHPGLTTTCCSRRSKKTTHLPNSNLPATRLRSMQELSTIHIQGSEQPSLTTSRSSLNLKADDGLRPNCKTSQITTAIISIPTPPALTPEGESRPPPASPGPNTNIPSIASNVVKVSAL
T1 sequence (Q9NS61 1-270 partner): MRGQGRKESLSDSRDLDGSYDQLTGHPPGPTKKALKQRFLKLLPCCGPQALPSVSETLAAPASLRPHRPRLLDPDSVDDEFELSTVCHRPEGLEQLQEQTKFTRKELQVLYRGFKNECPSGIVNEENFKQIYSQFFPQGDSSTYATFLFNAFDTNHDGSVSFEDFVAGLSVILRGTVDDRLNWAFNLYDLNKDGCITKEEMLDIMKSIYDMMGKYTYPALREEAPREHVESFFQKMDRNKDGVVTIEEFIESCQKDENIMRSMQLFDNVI
Protocol: For this experiment, a recombinant CHO-K1 cell line stably expressing the human Kv4.3/KChIP2.2 potassium channel was used.
Protocol B: The cells were cultured in 94 mm culture dishes under the culturing conditions of 5% CO2 and 37° C. Subculturing was performed every 3-4 days, by removing the media and then rising the dish with 8 ml PBS (phosphate buffered saline). The PBS was removed and 1 ml Trypsin/EDTA was added to the cells. The cells were incubated about 2 min at 37° C. or 5 min at room temperature and then the dish was rapped to detach and singularize the cells. To inactivate the enzyme 9 ml of media was added and the solution was pipetted up and down to break up clumps of cells. Part of the suspension was then transferred to a new 94 mm dish and media was added to a final volume of 8 ml. If necessary the cells could be seeded onto 35 mm or 94 mm dishes (2 ml media per 35 mm dish and 8 ml media per 94 mm dish). The media was changed every 2-3 days. The media used was the solution for culturing the cells described above. For stable cells antibiotic G418, Hygromycin, Blasticidin, or Zeocin were not added.
The preparation of cells for electrophysiological experiments was performed as described in protocol C hereunder.
Protocol C: The transfected cells and stable cells were transferred from 35 mm cell culture dishes onto coverslips using cold PBS: The media was removed and 0.3 ml of PBS (4-10° C.) was added. The cells were incubated 5 min at room temperature. The dish was rapped to detach and singularize the cells and 1.7 ml media was added and the solution pipetted up and down to break up clumps of cells. Part of the cell suspension was then transferred to a 35 mm dish with coverslips and media. The transfected cells and stable cells could also be transferred from 35 mm cell culture dishes onto coverslips using trypsin: The media was removed and the dish rinsed with 3 ml PBS. The PBS was removed and 0.3 ml 1× Trypsin/EDTA was added and the cells incubated 5 min at room temperature. The dish was rapped to detach and singularize the cells and 1.7 ml media was added and the solution pipetted up and down to break up clumps of cells. Part of the cell suspension was then transferred to a 35 mm dish with coverslips and media.
10 mM stock solutions of the compounds were prepared in DMSO. Solutions of the compounds were prepared by dilution of stock solution in bath solution. If the required stock solution volume was theoretically below 1 μl, bath solutions with higher compound concentration were used for dilution. The maximal DMSO concentration during experiments was 0.1% (v/v).
For patch clamp experiments, the following solutions in demineralized water as vehicle were used (concentration in mM).
Bath (external) solution: 4 KCl, 135 NaCl, 2 CaCl2, 1 MgCl2, 10 D(+)-Glucose, 5 HEPES, pH 7.4 (NaOH).
Pipette (internal) solution: 130 KCl, 1 MgCl2, 10 EGTA, 5 Na2ATP, 5 HEPES, pH 7.4 (KOH).
Experiments were performed using a patch clamp set-up.
Measurements were performed at room temperature (20-25° C.). […] Each cell acted as its own control. The effect of compounds on Kv4.3/KChIP2.2 mediated currents was investigated at one concentration ([…]) with two replicates each (c=1, n=2).
The test protocols are illustrated in FIG. 1 and Table 4. […] Each test protocol consisted of 4 segments.
Subsequently, 14 test pulses (series 1; FIG. 1b and Table 4b) were applied at 0.1 Hz under constant superfusion with bath solution. The protocol was initiated by a voltage jump to −100 mV (400 ms) to achieve full inactivation. Then the Kv4.3/KChIP2.2 channels were transferred to the open state by depolarization to +40 mV for 300 milliseconds (activation). Only cells generating current amplitudes between 1 nA and 50 nA were used for the experimental procedure. No or negligible rundown was observed.
Then, 36 test pulses (series 2) were applied at 0.1 Hz under constant superfusion with the compound dissolved in bath solution. […]

hERG potassium channel = hERG potassium channel (Homo sapiens, UniProt Q12809); assay: Whole cell patch clamp, HEK 293 T-REx HERG cells; conditions: for hERG (%): 10 μM
hERG potassium channel, sequence (Q12809 whole entry): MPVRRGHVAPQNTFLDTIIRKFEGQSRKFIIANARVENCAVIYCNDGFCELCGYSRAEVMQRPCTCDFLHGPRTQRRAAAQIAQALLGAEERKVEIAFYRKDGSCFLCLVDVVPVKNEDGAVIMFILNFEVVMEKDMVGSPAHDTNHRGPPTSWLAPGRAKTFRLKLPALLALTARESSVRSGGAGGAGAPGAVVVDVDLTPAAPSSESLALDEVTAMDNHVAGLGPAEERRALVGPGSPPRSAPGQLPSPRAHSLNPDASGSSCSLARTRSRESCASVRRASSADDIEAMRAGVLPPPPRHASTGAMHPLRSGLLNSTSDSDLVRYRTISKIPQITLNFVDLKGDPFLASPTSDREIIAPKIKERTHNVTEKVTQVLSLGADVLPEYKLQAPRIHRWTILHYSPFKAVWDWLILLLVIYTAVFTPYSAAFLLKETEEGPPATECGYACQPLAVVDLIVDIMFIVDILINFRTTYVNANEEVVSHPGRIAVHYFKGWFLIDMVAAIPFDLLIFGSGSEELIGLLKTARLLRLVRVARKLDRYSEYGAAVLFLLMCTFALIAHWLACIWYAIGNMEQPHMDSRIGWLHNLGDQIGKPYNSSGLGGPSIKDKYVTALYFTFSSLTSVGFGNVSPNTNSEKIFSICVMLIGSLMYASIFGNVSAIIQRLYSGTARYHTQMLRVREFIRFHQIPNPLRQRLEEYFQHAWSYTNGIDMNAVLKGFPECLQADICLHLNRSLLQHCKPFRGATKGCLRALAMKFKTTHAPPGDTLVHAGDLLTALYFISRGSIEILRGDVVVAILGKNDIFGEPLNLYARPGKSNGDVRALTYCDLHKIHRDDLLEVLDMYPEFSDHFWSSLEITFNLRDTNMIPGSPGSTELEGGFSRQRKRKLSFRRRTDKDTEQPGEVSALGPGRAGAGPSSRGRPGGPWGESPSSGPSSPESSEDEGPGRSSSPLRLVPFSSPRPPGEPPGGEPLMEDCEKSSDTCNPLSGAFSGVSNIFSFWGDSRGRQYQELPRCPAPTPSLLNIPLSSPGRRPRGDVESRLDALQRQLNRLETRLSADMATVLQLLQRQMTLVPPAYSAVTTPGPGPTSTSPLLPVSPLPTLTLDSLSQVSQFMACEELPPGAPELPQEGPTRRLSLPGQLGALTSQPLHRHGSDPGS

[2] = read-out: Kv4.3 charge in %: remaining current measured after application of the compound and relative to the blank
[3] = read-out: Kv4.3 peak in %: remaining peak height measured after application of the compound and relative to the blank

SMILES | IC50 ([1]; Table 12, read-out: Kv4.3 charge IC50) [µM] | melting point [°C] | remaining activity at 1 µM [1, 2] [%] | remaining activity at 1 µM [1, 3] [%] | IC50 (hERG potassium channel) [µM] | Ratio hERG/Kv4.3 (hERG potassium channel; selectivity Kv4.3 vs hERG, patch clamp) | hERG (%) (hERG potassium channel)
CN(CCCN1c2ccccc2CCc2ccccc21)C(=O)c1cc2cc(Cl)ccc2o1 [Compound 4, 5-chloro-benzofuran-2-carboxylic acid [3-(10,11-dihydro-dibenzo[b,f]azepin-5-yl)-propyl]-methyl-amide] | 3.81 |  |  |  | 20 | 5.2 | 
COc1ccc(CNC(=O)c2oc3ccc(Cl)cc3c2C)c(OC)c1 [Compound 16, 5-choro-3-methyl-benzofuran-2-carboxylic acid 2,4-dimethoxy-benzylamide] |  | 139.8 to 140.4 | 24 | 88 |  |  | 47
COc1ccc(CNC(=O)c2oc3ccccc3c2-n2cccc2)c(OC)c1 [Compound 18, 3-pyrrol-1-yl-benzofuran-2-carboxylic acid 2,4-dimethoxy-benzylamide] |  | 46 to 51.8 | 45 | 88 |  |  | 41
O=C(c1cc2cc(Cl)ccc2o1)N1CCCCC1Cc1ccccc1 (centres unmarked) [Compound 28, (2-benzyl-piperidin-1-yl)-(5-chloro-benzofuran-2-yl)-methanone] |  |  | 38 | 86 |  |  | 6
COc1ccc(CNC(=O)c2cc3ccccc3s2)c(OC)c1 [Compound 32, benzo[b]thiophene-2-carboxylic acid 2,4-dimethoxy-benzylamide] |  | 134.4 to 135.3 | 75 | 100 |  |  | 
CC(=O)Oc1ccc(CNC(=O)c2cc3cc(Cl)ccc3o2)cc1 [Compound 33, acetic acid 4-{[(5-chloro-benzofuran-2-carbonyl)-amino]-methyl}-phenyl ester] |  | 162.5 to 164.5 | 89 | 100 |  |  | 
O=C(NCc1ccc(-c2cccs2)cc1)c1cc2cc(Cl)ccc2o1 [Compound 34, 5-chloro-benzofuran-2-carboxylic acid 4-thiophen-2-yl-benzylamide] |  | 173.5 to 175 | 90 | 98 |  |  | 
Cc1ccc(CNC(=O)c2cc3cc(Cl)ccc3o2)cc1 [Compound 36, 5-chloro-benzofuran-2-carboxylic acid 4-methyl-benzylamide] |  | 161.9 to 162.9 | 72 | 89 |  |  | 
O=C(c1cc2cc(Cl)ccc2o1)N1CCC(c2ccccc2)CC1 [Compound 38, (5-chloro-benzofuran-2-yl)-(4-phenyl-piperidin-1-yl)-methanone] |  | 101 to 101.6 | 89 | 99 |  |  | 
O=C(NCc1cccs1)c1cc2cc(Cl)ccc2o1 [Compound 39, 5-chloro-benzofuran-2-carboxylic acid 4-(thiophen-2-ylmethyl)-amide] |  | 148.4 to 149.9 | 90 | 91 |  |  | 
COc1ccc(CNC(=O)c2cnc3ccccc3c2)c(OC)c1 [Compound 42, quinolin-3-carboxylic acid 2,4-dimethoxy-benzylamide] |  | 136.3 | 89 | 98 |  |  | 
CN(C)CC(NC(=O)c1cc2cc(Cl)ccc2o1)c1ccccc1 (centres unmarked) [Compound 49, 5-chloro-benzofuran-2-carboxylic acid (2-dimethylamino-1-phenyl-ethyl)-amide] |  | 60.2 to 60.4 | 85 | 98 |  |  | 

The next lines start with results.

IC50 ([1]; Table 12, read-out: Kv4.3 charge IC50) [µM] | melting point [°C] | remaining activity at 1 µM [1, 2] [%] | remaining activity at 1 µM [1, 3] [%] | SMILES | IC50 (hERG potassium channel) [µM] | Ratio hERG/Kv4.3 (hERG potassium channel; selectivity Kv4.3 vs hERG, patch clamp) | hERG (%) (hERG potassium channel)
 | 168.3 to 168.7 | 39 | 86 | Cc1cccc(Cl)c1CNC(=O)c1cc2cc(Cl)ccc2o1 [Compound 62, 5-chloro-benzofuran-2-carboxylic acid 2-chloro-6-methyl-benzylamide] |  |  | 
 | 178.6 to 179.7 | 76 | 85 | CN(C)c1ccc(CNC(=O)c2cc3cc(Cl)ccc3o2)cc1 [Compound 64, 5-chloro-benzofuran-2-carboxylic acid 4-dimethylamino-benzylamide] |  |  | 
 | 129.5 to 131.1 | 71 | 95 | CC(C)(C)c1ccc(CNC(=O)c2cc3cc(Cl)ccc3o2)cc1 [Compound 71, 5-chloro-benzofuran-2-carboxylic acid 4-tert-butyl-benzylamide] |  |  | 
 | 111.3 to 116.6 | 73 | 89 | O=C(c1cc2cc(Cl)ccc2o1)N1CC=C(c2ccc(F)cc2)CC1 [Compound 93, (5-chloro-benzofuran-2-yl)-[4-(4-fluoro-phenyl)-3,6-dihydro-2H-pyridin-1-yl]-methanone] |  |  | 
 | 197.4 to 198.8 | 90 | 99 | O=C(Nc1ccc(Cn2cccn2)cc1)c1cc2cc(Cl)ccc2o1 [Compound 105, 5-chloro-benzofuran-2-carboxylic acid (4-pyrazol-1-ylmethyl-phenyl)-amide] |  |  | 
 | 173.8 to 176.2 | 85 | 99 | COc1ccc(CNC(=O)c2cc3cc(Cl)ccc3o2)c(O)c1 [Compound 108, 5-chloro-benzofuran-2-carboxylic acid 2-hydroxy-4-methoxy-benzylamide] |  |  | 
 |  | 74 | 97 | N#CCCN(Cc1ccccc1)C(=O)c1cc2cc(Cl)ccc2o1 [Compound 109, 5-chloro-benzofuran-2-carboxylic acid benzyl-(2-cyano-ethyl)-amide] |  |  | 34

From patent publication US20080039442A1, “Compounds With Kv4 Ion Channel Activity” (Devgen NV, priority 2004, published 2008)
